This is an account of results in patent publication US8222260B2, “Substituted 6-anilinopurine derivatives as inhibitors of cytokinin oxidase/dehydrogenase and preparations containing these derivatives” (Univerzita Palackego V Olomouci, priority 2007, dated 2012).

For data set [1], the system named is Human diploid fibroblasts HCA. In words: Anti-aging activity: senescence-associated beta-galactosidase in human fibroblasts. Type of data set: cell-based. As for the experimental part: In this example, effects of the compounds of this invention on the activity of a senescence biomarker senescence-associated β-galactosidase was studied. Human diploid fibroblasts HCA of various passage levels were used for this purpose. The tested compounds were added to the medium at each passage. After the incubation period, cells were washed with PBS and fixed with 2% formaldehyde and 0.2% glutaraldehyde in PBS. After another wash with PBS, they were incubated with the staining solution comprising potassium ferricyanide (5 mM), potassium ferrocyanide (5 mM), MgCl2 (2 mM), X-gal (5-bromo-4-chloro-3-indolyl-β-D-galactopyranoside) (1 mg/ml), in citric/phosphate buffer (pH 6.0) at 37° C. (without CO2) for at least 1 hour. Following the incubation period, the numbers of cells expressing senescence-associated β-galactosidase (blue cells) were counted using light microscope.

Data set [2] relates to Rat C6 glioma (ATCC No. CCL107). Put plainly: Anti-inflammatory activity: isoproterenol-induced cAMP synthesis (ELISA). Type of data set: cell-based. Conditions: cAMP after 30 min, induced by (−)-isoproterenol. As to the method:
Anti-inflammatory activity of several of the substituted 6-anilinopurine derivatives of this invention was determined; kinetin was also evaluated as a control. Rat C6 glioma (ATCC No. CCL107) was cultivated in monolayer in serum-free chemically defined medium containing Ham's F10/minimal essential medium (1:1 v/v), 2 mM L-glutamine, 1% (v/v) minimal essential medium vitamins (100×), 1% (v/v) minimal essential medium nonessential amino acids (100×), 100 U/ml penicillin, […], and 30 nM sodium selenite. Incubation was performed at 37° C. in a 100% humidified atmosphere. The assays were performed in the logarithmic growth phase at a density of 2.5×10^5 cells/cm^2. Intracellular cAMP synthesis was induced by addition of 5 mM (−)-isoproterenol; various amounts of test compounds were added at the same time as the (−)-isoproterenol. After 30 min incubation, the cellular amount of cAMP was determined using ELISA (cAMP-enzyme immunoassay kit from Amersham). The I50 values were determined from the dose-response curve in duplicate.

The test system of data set [3] is Salmonella typhimurium TA98 and TA100. Put plainly: Ames test. Type of data set: cell-based. Conditions: 2.5 to 5000 μg/plate. As to the method:
Amest test was used in order to exclude mutagenic effect of 2-chloro-6-(4-hydroxyanilino)purine. Histidin auxotrophs of Salmonella typhimurium TA98 and TA100 were used as indicator strains and the test was carried out according to standard protocols (Ames et al., Mutation Research, 31, 347-364 (1975); Maron et al., Mutation Research, 113, 173-215 (1983)). Tested concentrations were as follows: 2.5, 5.0, 15, 50, 500, 1500, a 5000 μg/plate. The compound was not mutagenic even in the concentrations exceeding its solubility limit in the culture medium.

In data set [4] the test system is CKX1 overproducing Arabidopsis seedlings. In words: CKX1 overproducing Arabidopsis seedlings grown in vitro on MS medium, phenotype reversion. Type of data set: in vivo. The note with it: in vitro on MS medium containing 0.1 μM compound.
The subject of data set [5] is osteosarcoma cell line HOS. In words: Calcein AM cytotoxicity assay. Type of data set: cell-based, human. The note with it: 72 hours. The source says: (§1) Absence of toxic effects against mammalian (especially human) cell lines in a wide concentration range is one of the requirements on compounds intended for use in agriculture and medicine. Because toxic compounds negatively influence metabolic processes in cells, many standard cytotoxicity assays are based on measurement of metabolisation rate of various artificial substrates. Resulting product is then quantified e.g. by means of spectrometry. The assays can be easily modified for use in 96-well plates. For evaluation of cytotoxic effect of compounds of this invention, a microtiter assay based on quantification of metabolisation of Calcein AM was used. The assay is widely used in drug screening programs and in chemosensitivity testing. In live cells, Calcein AM is enzymatically hydrolysed and accumulation of resulting calcein is manifested by green fluorescence.
(§2) Following human cell lines were used for routine screening of the compounds: T-lymphoblastic leukemia cell line CEM, promyelocytic leukemia cell line HL-60, erytroid leukemia cell line K-562, breast carcinoma cell line MCF-7, osteosarcoma cell line HOS and melanoma cell line G-361. Mouse cell lines B16-F10 (melanoma) and NIH-3T3 (fibroblasts) were used as well. The cells were maintained in Nunc/Corning 80 cm^2 plastic tissue culture flasks and cultured in cell culture medium (DMEM with 5 g/l glucose, 2 mM glutamine, 100 U/ml penicillin, 100 μg/ml streptomycin, 10% fetal calf serum and sodium bicarbonate).
(§3) The cell suspensions were prepared and diluted according to the particular cell type and the expected target cell density (2.500-30.000 cells per well based on cell growth characteristics) and pippetted (80 μl) into 96-well plates. Inoculates were allowed a pre-incubation period of 24 hours at 37° C. and 5% CO2 for stabilisation. Tested compound was added in total volume of 20 μl of water at time zero. Usually, test compound was evaluated at six 3-fold dilutions. In routine testing, the highest concentration tested was 166.6 μM. All drug concentrations were tested in triplicates. Incubations of cells with the test compounds lasted for 72 hours at 37° C., in 5% CO2 atmosphere and 100% humidity. At the end of incubation period Calcein AM in PBS was added into final concentration of 1 μg/ml. After another 1 hour of incubation fluorescence (FD) was measured with the Labsystem FIA Reader Fluoroscan Ascent (UK). Growth inhibition (GI) was estimated using the following equitation: GI=(mean FDdrug exposed wells−mean FDblank)/(mean FDcontrol wells−mean FDblank)×100%. The GI50 value, the drug concentration causing 50% reduction of Calcein AM conversion, was calculated from the obtained dose response curves.

Data set [6] relates to T-lymphoblastic leukemia cell line CEM. In words: Calcein AM cytotoxicity assay. Type of data set: cell-based, human. The note with it: 72 hours.
From the text: as §1
(§4) Mouse cell lines B16-F10 (melanoma) and NIH-3T3 (fibroblasts) were used as well. The cells were maintained in Nunc/Corning 80 cm^2 plastic tissue culture flasks and cultured in cell culture medium (DMEM with 5 g/l glucose, 2 mM glutamine, 100 U/ml penicillin, 100 μg/ml streptomycin, 10% fetal calf serum and sodium bicarbonate).
as §3, with “In routine testing, the highest concentration tested was 166.6 μM.” left out, “FDblank)×100%.” for “FDblank)×100%. The GI50 value, the drug concentration causing 50% reduction of Calcein AM conversion, was calculated from the obtained dose response curves.”

The test system of data set [7] is promyelocytic leukemia cell line HL-60. Put plainly: Calcein AM cytotoxicity assay. Type of data set: cell-based, human. Conditions: read-out: GI50 HL60.
From the text: as §1, §4
as §3, with “In routine testing, the highest concentration tested was 166.6 μM.” left out, “FDblank)×100%.” for “FDblank)×100%. The GI50 value, the drug concentration causing 50% reduction of Calcein AM conversion, was calculated from the obtained dose response curves.”

The subject of the next data set is NIH-3T3 (fibroblasts). In words: Calcein AM cytotoxicity assay. Type of data set: cell-based, Mouse.
From the text: as §1, §4
as §3, with “In routine testing, the highest concentration tested was 166.6 μM.” left out, “FDblank)×100%.” for “FDblank)×100%. The GI50 value, the drug concentration causing 50% reduction of Calcein AM conversion, was calculated from the obtained dose response curves.”

The subject of data set [8] is erytroid leukemia cell line K-562. In words: Calcein AM cytotoxicity assay. Type of data set: cell-based, human. Conditions: 72 hours.
From the text: as §1, §2, §3

The subject of the next data set is melanoma cell line G-361. In words: Calcein AM cytotoxicity assay. Type of data set: cell-based, human. Conditions: 72 hours.
From the text: as §1, §2, §3

For data set [9], the system named is breast carcinoma cell line MCF-7. Put plainly: Calcein AM cytotoxicity assay. Type of data set: cell-based, human. Conditions: 72 hours, read-out: GI50 MCF7.
From the text: as §1, §4
as §3, with “In routine testing, the highest concentration tested was 166.6 μM.” left out, “FDblank)×100%.” for “FDblank)×100%. The GI50 value, the drug concentration causing 50% reduction of Calcein AM conversion, was calculated from the obtained dose response curves.”

For another data set, the system named is B16-F0. In words: Calcein AM cytotoxicity assay. Type of data set: cell-based, Mouse. The note with it: 72 hours.

Structures are written as SMILES. Like-named read-outs stand apart in the source and are kept apart here. A value given as a limit tells only on which side of the number the result lay.

As to `Oc1ccc(Nc2nc(Cl)nc3nc[nH]c23)cc1` [Compound 10, 2-chloro-6-(4-hydroxyanilino)purine], the “Senescent Cells (%) HCA passage 25” value in data set [1] (passage 25, cells expressing senescence-associated beta-galactosidase) is recorded as 4%. In addition, the “Senescent Cells (%) HCA passage 50” value in data set [1] (passage 50, cells expressing senescence-associated beta-galactosidase) is recorded as 6%. The “Senescent Cells (%) HCA passage 80” value in data set [1] (passage 80, cells expressing senescence-associated beta-galactosidase) was determined as 22%. In addition, in data set [2] (Rattus norvegicus, C6 glioma, 0.5 h, read-out: I50), the IC50 worked out at 13 µM. Moreover, the “Effect (anti-inflammatory activity)” value in [2] is reported as “Inhibition”. The mutagenic effect entry in [3] is listed as “not mutagenic”.
Turning to `c1ccc(CNc2ncnc3nc[nH]c23)cc1` [benzylamino, 6-benzylaminopurine, reference compound], the “reversion of WT phenotype” value in [4] is recorded as “appeared only when the compound 12 was present”. In addition, the GI50 in data set [5] (Homo sapiens) is greater than 167 µM; in data set [6] (Homo sapiens), greater than 167 µM; in data set [7] (Homo sapiens, HL-60, 72 hours), greater than 167 µM; in the data set on NIH-3T3 (fibroblasts) (Mus musculus, NIH3T3, 72 hours) it was greater than 167 µM.
Regarding `Oc1cccc(CNc2ncnc3nc[nH]c23)c1` [meta-topolin, reference compound], the GI50 is 128 µM in data set [8]; greater than 167 µM in the data set on melanoma cell line G-361; greater than 167 µM in [5]; 90.1 µM in data set [6]; greater than 167 µM in [9]; 79.2 µM in data set [7] (72 hours). For the same compound, the results for the GI50 in the data set on B16-F0 and in the data set with NIH-3T3 (fibroblasts) (72 hours) were 90.6 µM and greater than 167 µM, respectively.
As for `Oc1ccccc1CNc1ncnc2nc[nH]c12` [ortho-topolin, reference compound], the GI50 in [8] was greater than 167 µM; in the data set with melanoma cell line G-361, 103 µM; in [5], greater than 167 µM; in [6] it was 69.2 µM; in data set [9], greater than 167 µM; in data set [7] (72 hours) it was 78 µM. The figures for the GI50 in the data set with B16-F0 and in the data set with NIH-3T3 (fibroblasts) (72 hours) were 150 µM and greater than 167 µM, respectively.
